Legend:
Aspergillus flavus = test: Surface-smearing method, Aspergillus flavus; type: cell-based; details: about 10 mg complex, 4 days at 25° C.
[1] = test system: Cladosporium cladosporoides; test: Surface-smearing method, Cladosporium cladosporoides; type: cell-based; parameters: key: the proliferation level of the control (=100%, -); +: up to 80% of proliferation with respect to the proliferation level of the control (=100%, -); ++: up to 40% of proliferation; +++: almost complete suppression of proliferation; details: about 10 mg complex, 4 days at 25° C.
Fusarium oxysporum = test: Surface-smearing method, Fusarium oxysporum; type: cell-based; details: about 10 mg complex, 4 days at 25° C.
E. coli = test: Minimal inhibitory concentration, E. coli; type: cell-based; details: SCD liquid medium, 48 hours at 35° C.
S. cerevisiae = test: Minimal inhibitory concentration, S. cerevisiae; details: GP liquid medium, 48 hours at 35° C.
Description: (§1) Yeast was inoculated in a glucose-peptone (GP) liquid medium (5 ml) and precultured for 24 hours at 35° C. The precultured bacterial liquid was diluted so as to obtain a 100-fold diluted liquid (0.1 ml), and was inoculated into a GP liquid medium containing a thiol-silver complex (2 ml). After performing shaking culture for 48 hours at 35° C., presence or absence of proliferation was assessed.

P. aeruginosa = test: Minimal inhibitory concentration, P. aeruginosa; details: SCD liquid medium, 48 hours at 35° C.
Description: (§2) (b) Method for measuring antibacterial activity based on a minimal inhibitory concentration (MIC)
(§3) A bacterium was inoculated in a soybean casein digest (SCD) liquid medium (5 ml) and precultured for 24 hours at 35° C. The precultured bacterial liquid was diluted so as to obtain a 100-fold diluted liquid (0.1 ml), and was inoculated into an SCD liquid medium containing a thiol-silver complex (2 ml). After performing shaking culture for 48 hours at 35° C., presence or absence of proliferation was assessed.

B. subtilis = test: Minimal inhibitory concentration, B. subtilis; details: SCD liquid medium, 48 hours at 35° C.
Description: as §2, §3

Penicillium chrysogenum = test: Surface-smearing method, Penicillium chrysogenum; type: cell-based; parameters: key: the proliferation level of the control (=100%, -); +: up to 80% of proliferation with respect to the proliferation level of the control (=100%, -); ++: up to 40% of proliferation; +++: almost complete suppression of proliferation; details: about 10 mg complex, 4 days at 25° C.
C. albicans = test: Minimal inhibitory concentration, C. albicans; details: GP liquid medium, 48 hours at 35° C.
Description: as §1

S. aureus = test: Minimal inhibitory concentration, S. aureus; type: cell-based; details: SCD liquid medium, 48 hours at 35° C.
Solubility in water = details: 20° C.
[2] = Stability against exposure to light (color difference); type: physicochemical
Description: To 10 mg of each of the thiol-silver complexes shown in Table 9 to be tested, 1 ml of ethanol was added and then sonicated so as to disperse particles. The dispersed particles were uniformly fixed onto a Kiriyama filter paper (No. 3, diameter: 21 mm) by the application of a suction force. After drying, test pieces of the filter paper were sandwiched between colorless transparent plastic films (each having a thickness of 0.1 mm) and the peripheries were sealed.
The test pieces were exposed to sunlight outdoors on a sunny day. During the test, they were placed such that their surfaces received direct rays of the sun at an incidence angle of approximately 90°.
Measurement was performed using a color difference meter CR-300 (using D65 rays) manufactured by Minolta Camera Co., Ltd. Six hours after exposure to sunlight, measurement was reiterated 4 times and the data were averaged.

[3] = test system: human cytomegalovirus (HCMV); test: Anti-HCMV activity, Experiment 2 (1); type: cell-based; details: HCMV 1×10^4 pfu/ml, medium not changed, 72 hours, control 390
[4] = test system: human cytomegalovirus (HCMV); test: Anti-HCMV activity, Experiment 2 (2); type: cell-based; details: HCMV 1×10^4 pfu/ml, washed after 1 hour adsorption, 72 hours, control 120
[5] = test system: human cytomegalovirus (HCMV); test: Anti-HCMV activity, Experiment 1; type: cell-based; details: 10 μg/ml; Experiment 1, HCMV 1×10^3 pfu/ml, HEL cells, 72 hours; control 30
mice = test: Peroral toxicity, single dose; type: in vivo, mice (ICR, male); details: for Dead mice/Total mice: day 14
[6] = after exposure to sunlight, six hours

Molecule | antibacterial activity ranking, surface-smearing method (Aspergillus flavus) | antibacterial activity ranking, surface-smearing method [1] | antibacterial activity ranking, surface-smearing method (Fusarium oxysporum) | Minimal Inhibitory Concentration (E. coli) [µg/mL] | Minimal Inhibitory Concentration (S. cerevisiae) [µg/mL] | Minimal Inhibitory Concentration (P. aeruginosa) [µg/mL] | Minimal Inhibitory Concentration (B. subtilis) [µg/mL] | antibacterial activity ranking, surface-smearing method (Penicillium chrysogenum) | Minimal Inhibitory Concentration (C. albicans) [µg/mL] | Minimal Inhibitory Concentration (S. aureus) [µg/mL] | other results
2-Naphthalenethiol-silver complex [#3] | + (up to 80% of proliferation with respect to the proliferation level of the control (=100%, -)) | +++ | - (the proliferation level of the control (=100%, -)) | 8 | 62.5 | 250 | < 2 | + (up to 80% of proliferation with respect to the proliferation level of the control (=100%, -)) | 125 | 250 | –
5-Mercapto-(1H)tetrazoylacetic acid-silver complex.Na [#16-b] | + (up to 80% of proliferation with respect to the proliferation level of the control (=100%, -)) | +++ | ++ (up to 40% of proliferation) | 16 | 125 | 16 | 32 | +++ | 250 | 32 | –
[Cl][Ag] [silver chloride] | – | – | – | – | – | – | – | – | – | – | solubility, in water (Solubility in water): less than 1 % by weight
Thiosalicylic acid-silver complex [#1L-8H] | - (the proliferation level of the control (=100%, -)) | +++ | ++ (up to 40% of proliferation) | < 2 | 125 | 16 | < 2 | ++ (up to 40% of proliferation) | 1000 | 16 | L* (L*a*b* color representation) [2, 6]: 65.4; a* (L*a*b* color representation) [2, 6]: 8.3; b* (L*a*b* color representation) [2, 6]: 40.1; L* (L*a*b* color representation) ([2]; before exposure to sunlight): 83.1; a* (L*a*b* color representation) ([2]; before exposure to sunlight): 13.2; b* (L*a*b* color representation) ([2]; before exposure to sunlight): 66.4; number of cells positive in fluorescent staining (single field of vision) ([3]; 1 μg/ml): 280; number of cells positive in fluorescent staining (single field of vision) ([3]; 10 μg/ml): 240; number of cells positive in fluorescent staining (single field of vision) ([3]; 50 μg/ml): 100; number of cells positive in fluorescent staining (single field of vision) ([4]; 1 μg/ml): 30; number of cells positive in fluorescent staining (single field of vision) ([4]; 10 μg/ml): 30; number of cells positive in fluorescent staining (single field of vision) ([4]; 50 μg/ml): 20; number of cells positive in fluorescent staining (single field of vision) [5]: 5; Dead mice/Total mice (mice; 1762 mg/kg peroral single dose): 0/5; Dead mice/Total mice (mice; 2291 mg/kg peroral single dose): 0/5; Dead mice/Total mice (mice; 2978 mg/kg peroral single dose): 0/4; Dead mice/Total mice (mice; 3871 mg/kg peroral single dose): 0/4; LD50 (mice; peroral, single dose, ICR male mice, 20160 min): not less than 3.9 g/kg
α-Thioglycerol-silver complex [#14-b] | - (the proliferation level of the control (=100%, -)) | ++ (up to 40% of proliferation) | - (the proliferation level of the control (=100%, -)) | – | 250 | 62.5 | 250 | + (up to 80% of proliferation with respect to the proliferation level of the control (=100%, -)) | > 1000 | 250 | –
